Converted amounts (≈) assume the structure as drawn.
Assays:
Test in all cases: Minimum Inhibitory Concentration (MIC) in the agar incorporation test
Format in all cases: cell-based
[1] = system: Aspergillus niger ATCC 6275; conditions: ATCC6275, 72 h, Sabouraud 4% glucose agar, 3 days at 28° C.
Method: (§1) Determination of the Minimum Inhibitory Concentration (MIC) in the Agar Incorporation Test (MIC Test)
(§2) 0.3 ml of each dilution stage is mixed with 15 ml of still-liquid nutrient medium. After the nutrient medium has solidified, 10 μl of each of the following organism dilutions of the test strains in 0.85% NaCl solution are spotted onto the agar medium:
(§3) The plates are incubated for 24 hours at 37° C. (A. niger 3 days at 28° C.) and then the highest dilution (lowest concentration) of the test substance at which growth is just no longer discernible (corresponds to the MIC) is determined.

[2] = system: Staphylococcus aureus ATCC 9144; conditions: ATCC9144, 24 hours at 37° C.
Method: as §1, §2, §3

[3] = system: Escherichia coli NCTC 8196; conditions: NCTC8196, 24 hours at 37° C.
Method: as §1, §2, §3

[4] = system: Pseudomonas aeruginosa CIP A-22; conditions: CIPA22, 24 hours at 37° C.
Method: as §1, §2, §3

[5] = system: Candida albicans ATCC 10231
Method: as §1, §2, §3

[6] = system: Corynebacterium xerosis ATCC 373; conditions: ATCC373, 24 h
Method: (§4) Determination of the Minimum Inhibitory Concentration (MIC) in the Agar Incorporation Test (MIC Test) [table] Test Principle: 0.3 ml of each dilution stage is mixed with 15 ml of still-liquid nutrient medium. After the nutrient medium has solidified, 10 μl of each of the following organism dilutions of the test strains in 0.85% NaCl solution are spotted onto the agar medium: The plates are incubated for 24 hours at 37° C. (A. niger 3 days at 28° C.) and then the highest dilution (lowest concentration) of the test substance at which growth is just no longer discernible (corresponds to the MIC) is determined.

[7] = system: Enterococcus hirae ATCC 10541; conditions: ATCC10541
Method: as §4

[8] = system: Staphylococcus hominis DSM 20328; conditions: DSM20328
Method: as §4

[9] = system: Escherichia coli ATCC 10536; conditions: ATCC10536
Method: as §4

[10] = ATCC10231, Candida albicans ATCC 10231, 24 hours at 37° C.
[11] = 24 h, Candida albicans ATCC 1023 (as printed in Table 3e)

SMILES	MIC [1] [µg/mL]	MIC [2] [µg/mL]	MIC [3] [µg/mL]	MIC [4] [µg/mL]	MIC [5, 10] [µg/mL]	MIC [6] [µg/mL]	MIC [7] [µg/mL]	MIC [8] [µg/mL]	MIC [9] [µg/mL]	MIC [5, 11] [µg/mL]
CC(Cc1cc(Oc2ccccc2)ccc1O)C[Si](C)(O[Si](C)(C)C)O[Si](C)(C)C (stereo not drawn) [(101)]	> 1000	1000 (≈ 2160 µM)	> 1000	> 1000	> 1000	–	–	–	–	–
COc1cc(CCC[Si](C)(O[Si](C)(C)C)O[Si](C)(C)C)ccc1O [(102)]	> 1000	> 1000	> 1000	> 1000	> 1000	–	–	–	–	–
CC(Cc1cc(-c2ccccc2)ccc1O)C[Si](C)(O[Si](C)(C)C)O[Si](C)(C)C (stereo not drawn) [(103)]	> 560	> 560	> 560	> 560	> 560	17.5 (≈ 39.2 µM)	> 560	> 560	–	–
C[Si](C)(C)O[Si](C)(CCCc1ccccc1O)O[Si](C)(C)C [(104)]	> 1000	8 (≈ 22.4 µM)	> 1000	> 1000	> 1000	–	–	–	–	–
C[Si](C)(C)O[Si](C)(C)O[Si](C)(C)CCCc1ccccc1O [(105)]	> 1000	15.6 (≈ 43.7 µM)	> 1000	> 1000	> 1000	3.9 (≈ 10.9 µM)	15.6 (≈ 43.7 µM)	> 1000	–	–
C[Si](C)(C)O[Si](C)(C)CCCc1ccccc1O [(106)]	31.2 (≈ 110 µM)	7.8 (≈ 27.6 µM)	> 1000	> 1000	> 1000	7.8 (≈ 27.6 µM)	15.6 (≈ 55.2 µM)	31.2 (≈ 110 µM)	–	–
C[Si](C)(CCCc1ccccc1O)c1ccccc1 [(107)]	15.6 (≈ 57.7 µM)	1.9 (≈ 7.03 µM)	> 1000	> 1000	125 (≈ 462 µM)	1.9 (≈ 7.03 µM)	3.9 (≈ 14.4 µM)	7.8 (≈ 28.8 µM)	–	–
CC(Cc1cc(C(C)(C)C)ccc1O)C[Si](C)(O[Si](C)(C)C)O[Si](C)(C)C (stereo not drawn) [(108)]	> 1000	–	> 1000	> 1000	> 1000	8 (≈ 18.7 µM)	–	–	–	–
COc1ccc(O)c(CCC[Si](C)(O[Si](C)(C)C)O[Si](C)(C)C)c1 [(110)]	> 1000	250 (≈ 646 µM)	> 1000	> 1000	> 1000	4 (≈ 10.3 µM)	–	–	–	–
COc1ccc(O)c(CCC[Si](C)(C)c2ccccc2)c1 [(111)]	> 1000	125 (≈ 416 µM)	> 1000	> 1000	> 1000	8 (≈ 26.6 µM)	–	–	–	–
C[Si](C)(C)O[Si](C)(C)O[Si](C)(C)CCCc1cc(Cl)ccc1O [(112)]	> 1000	7 (≈ 17.9 µM)	> 1000	> 1000	> 1000	2 (≈ 5.11 µM)	–	–	–	–
Cc1ccc(O)c(CCC[Si](C)(C)O[Si](C)(C)C)c1 [(114)]	> 1000	8 (≈ 27 µM)	> 1000	> 1000	> 1000	8 (≈ 27 µM)	–	–	–	–
C[Si](C)(C)O[Si](C)(C)CCCc1cc(Cl)ccc1O [(115)]	500 (≈ 1580 µM)	15 (≈ 47.3 µM)	250 (≈ 789 µM)	> 1000	500 (≈ 1580 µM)	8 (≈ 25.2 µM)	–	–	–	–
C[Si](C)(C)O[Si](C)(CCCc1ccc2ccccc2c1O)O[Si](C)(C)C [(116)]	> 1000	> 1000	–	–	–	500 (≈ 1230 µM)	–	> 1000	> 1000	> 1000
CC(Cc1ccc2ccccc2c1O)C[Si](C)(O[Si](C)(C)C)O[Si](C)(C)C (stereo not drawn) [(117)]	> 1000	> 1000	–	–	–	1000 (≈ 2380 µM)	–	> 1000	> 1000	> 1000
CC[Si](CC)(CC)CC(C)Cc1cc(Oc2ccccc2)ccc1O (stereo not drawn) [(118)]	> 1000	4 (≈ 11.2 µM)	> 1000	> 1000	> 1000	–	–	–	–	–
C[Si](C)(CCCc1cc(Cl)ccc1O)c1ccccc1 [(119)]	62 (≈ 203 µM)	4 (≈ 13.1 µM)	> 1000	> 1000	62 (≈ 203 µM)	2 (≈ 6.56 µM)	–	–	–	–
CC(Cc1cc(Oc2ccccc2)ccc1O)C[Si](C)(C)c1ccccc1 (stereo not drawn) [(120)]	> 1000	8 (≈ 21.2 µM)	> 1000	> 1000	> 1000	4 (≈ 10.6 µM)	–	–	–	–
CC(Cc1ccc2ccccc2c1O)C[Si](C)(C)c1ccccc1 (stereo not drawn) [(121)]	> 1000	> 1000	–	–	–	250 (≈ 747 µM)	–	> 1000	> 1000	> 1000

Source: patent publication US7078550B2, “Silanyl phenols and naphthols” (Ciba Specialty Chemicals Corporation, priority 2001, dated 2006)
